Experiments:
BAY61-3606 = compound: COC1=C(C=C(C=C1)C2=CC3=NC=CN3C(=N2)NC4=C(C=CC=N4)C(=O)N)OC [BAY61-3606]; assay: relative viability (nuclei count vs DMSO), 5 days (fraction); higher = more cells survive
Procedure, shortened: (§1)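 On vehicle-anchored 1536-well plates, lung cancer cell lines held overnight at 37 °C were pinned with five library-drug doses (not always all listed) spaced by √10. With no medium change over 5 days, they were then fixed, permeabilised and Hoechst-stained in one step and imaged at 4×. MetaXpress counted nuclei, and viability is the median across plates of treated-well over vehicle-well nuclei. Acceptance needed control CV below 25% and at least one doubling.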

Doxorubicin = compound: COc1cccc2c1C(=O)c1c(O)c3c(c(O)c1C2=O)C[C@@](O)(C(=O)CO)C[C@@H]3O[C@H]1C[C@H](N)[C@H](O)[C@H](C)O1 [Doxorubicin]; assay: as above
Procedure, shortened: as §1

Row | Cell Line | relative viability (BAY61-3606; 0.02 µM) | relative viability (BAY61-3606; 0.06325 µM) | relative viability (BAY61-3606; 0.2 µM) | relative viability (BAY61-3606; 0.6325 µM) | relative viability (BAY61-3606; 2 µM) | relative viability (Doxorubicin; 0.001 µM) | relative viability (Doxorubicin; 0.003162 µM) | relative viability (Doxorubicin; 0.01 µM) | relative viability (Doxorubicin; 0.03162 µM) | relative viability (Doxorubicin; 0.1 µM)
1 | NCI-H2170 | 0.983 | 0.978 | 0.974 | 1.03 | 0.932 | 0.973 | 0.992 | 0.93 | 0.799 | 1.02
2 | NCI-H2228 | 1.18 | 0.922 | 0.944 | 1.06 | 0.792 | 0.859 | 1 | 0.822 | 0.606 | 0.339
3 | NCI-H2342 | 0.966 | 1.02 | 0.908 | 0.966 | 1.15 | 0.938 | 1.03 | 0.929 | 0.763 | 0.877
4 | NCI-H2347 | 1.03 | 1.05 | 1.04 | 1 | 1.05 | 0.992 | 1.08 | 0.945 | 0.945 | 0.838
5 | NCI-H2405 | 1.07 | 0.984 | 0.977 | 0.968 | 0.84 | 0.972 | 1.04 | 1.08 | 0.997 | 0.626
6 | NCI-H3122 | 1.02 | 1 | 0.985 | 1.01 | 0.961 | 0.946 | 1.01 | 0.908 | 0.876 | 0.92
7 | PC-3 [JPC-3] | 1.04 | 1 | 1 | 1.02 | 0.939 | 1.08 | 1.05 | 1.04 | 0.998 | 0.982
8 | PC-14 | 1.07 | 1.04 | 0.916 | 0.992 | 0.877 | 0.974 | 1.05 | 1.01 | 0.789 | 0.52
9 | RERF-LC-KJ | 1.04 | 1.03 | 0.93 | 1.06 | 0.791 | 0.986 | 1.04 | 0.986 | 0.713 | 0.904
10 | SK-LU-1 | 1.08 | 1.04 | 1.04 | 1.06 | 0.694 | 1 | 1.05 | 0.987 | 0.798 | 0.654
11 | SK-MES-1 | 1.02 | 0.994 | 0.974 | 1.06 | 0.891 | 0.997 | 1.06 | 0.906 | 0.594 | 0.542
12 | SW 900 | 0.895 | 0.762 | 0.678 | 0.937 | 0.813 | 0.671 | 0.992 | 0.774 | 0.665 | 0.404
13 | SW 1573 | 1.04 | 1.03 | 0.905 | 1 | 0.659 | 0.876 | 0.914 | 0.539 | 0.364 | 0.292

— the supplement of paper PMC10307832
